Consider three compounds from patent publication EP0683787B1, “4'-O-SULFONYL-ANTHRACYCLINE DERIVATIVES” (PHARMACIA & UPJOHN S.p.A., priority 1993, dated 1995).

SMILES strings stand for the structures. ≈ marks a conversion by molar mass, not a printed value.

Assay [1] relates to LoVo (colon adenocarcinoma). Description: Colony assay, cytotoxic activity on LoVo cells. The assay is classed as cell-based. The note with it: Homo sapiens, Colony assay: 4 h treatment, concentration inhibiting 50% colony formation. From the text: (§1) The cytotoxic activity is reported as IC50, the concentration inhibiting 50% of colony formation, calculated on concentration response curves. Resistance index R.I. is the ratio between the IC50 on resistant cells and the IC50 on sensitive cells.

For assay [2], the system named is LoVo/DX (colon adenocarcinoma resistant to doxorubicin). Put plainly: Colony assay, cytotoxic activity on LoVo/DX cells. It counts as cell-based, human. The note with it: for R.I. (Resistance Index): (IC50 Lovo/DX)/(IC50 LoVo); for IC50: Homo sapiens, LoVo/DX, Colony assay: 4 h treatment, concentration inhibiting 50% colony formation.
From the text: as §1

The subject of assay [3] is P388 murine leukaemia resistant to doxorubicin. Description: Antitumor activity in vivo on P388/DX leukaemia. More on the design: species or system BD2F1 mice. The note with it: for T/C: Median survival time of treated mice/Median survival time of controls x 100, at Optimal Dose, i.v. one day after tumor transplantation; for O.D. (Optimal Dose): injected i.v. one day after tumor transplantation, 10^5 cell/mouse transplanted i.v.

Usually IC50 stands for the concentration that gives 50% inhibition. For orientation: T/C means the ratio of treated to control. As to `COc1cccc2c1C(=O)c1c(O)c3c(c(O)c1C2=O)C[C@@](O)(C(=O)CO)C[C@@H]3O[C@H]1C[C@H](N)[C@H](OS(C)(=O)=O)[C@H](C)O1` [Compound 2a, 4'-O-methansulfonyldoxorubicin], half-maximal inhibition in assay [1] (IC50) required 0.0173 µg/mL (≈ 0.0278 µM). In assay [2], the “R.I. (Resistance Index)” value came out at 104.0 and the IC50 amounted to 1.8 µg/mL (≈ 2.9 µM). Further, in assay [3], the T/C turned out to be 137% and the “O.D. (Optimal Dose)” value is reported as 40.0 mg/kg.

Turning to `COc1cccc2c1C(=O)c1c(O)c3c(c(O)c1C2=O)C[C@@](O)(C(=O)CO)C[C@@H]3O[C@H]1C[C@H](N)[C@H](O)[C@H](C)O1` [doxorubicin, reference compound], the IC50 in assay [1] amounted to 0.049 µg/mL (≈ 0.0902 µM); in assay [2], 2.55 µg/mL (≈ 4.7 µM). In addition, in assay [3], the “O.D. (Optimal Dose)” value was found to be 16.9 mg/kg.

For the compound `CC(=O)[C@]1(O)Cc2c(O)c3c(c(O)c2[C@@H](O[C@H]2C[C@H](N)[C@H](OS(C)(=O)=O)[C@H](C)O2)C1)C(=O)c1ccccc1C3=O` [Compound 1b, 4-demethoxy-4'-O-methansulfonyldaunorubicin], half-maximal inhibition in assay [1] (IC50) was put at 0.0105 µg/mL (≈ 0.0182 µM). In addition, in assay [2], the “R.I. (Resistance Index)” value is 5.8 and half-maximal inhibition (IC50) required 0.0605 µg/mL (≈ 0.105 µM). In assay [3], the T/C is on record as 133% and the “O.D. (Optimal Dose)” value is reported as 8.1 mg/kg.
